# Test: 13C-octanoic acid breath test of gastric emptying: 13CO2 excretion in exhaled respiratory air measured by IRMS after test meal
# Description: The thus formed ^13CO2 is then measured in the exhaled respiratory air by means of IRMS. IRMS (isotope ratio mass spectrography) has in the meantime become the most sensitive and best method for determining ^13CO2 in the exhaled respiratory air.
# Therefore, the sampling and optimum calculation take three to four hours. The interval for sampling is optimal at 15 min.
# Further, the patient need not sit calmly between the measuring devices for radioactivity. Rather, it is sufficient if they blow samples of their respiratory air into collecting devices every 12 minutes. For example, the so-called vacutainerss are particularly suitable for this purpose. These samples of the exhaled respiratory air may then be measured and evaluated in a central laboratory with a correspondingly sensitive IRMS equipment.
compound,measurement,setting,value
CCCCCCC[13C](=O)O [^13C-octanoic acid],maximum of 13CO2 excretion,"normal gastric emptying (patient No. 1), free 13C-octanoic acid bound to egg yolk, oral test meal, exhaled air, IRMS",> 2.9 h
same,maximum of 13CO2 excretion,somewhat faster gastric emptying (patient No. 5),> 2.9 h
same,maximum of 13CO2 excretion,very delayed gastric emptying (patient No. 4),< 2.5 h

# — US20060057181A1, “Method for determining the gastric evacuation using a 13c-labelled test meal” (priority 2002, published 2006)
